Molecular target: T1, 14-3-3γ/ERRγ complex (Homo sapiens, UniProt P61981+P62508)
T1 construct: made in house; host or cells: E. coli NiCo21 (DE3)
Experiment: Fluorescence anisotropy (FA): 14-3-3γ titration to fluorescein-ERRγ phosphopeptide with 100 μM compound
Assay type: binding
Settings: for SF100 / stabilization (SF100) at high TCEP / stabilization of 14-3-3γ/ERRγ complex (SF100, fold): 100 μM compound; for SF100: 50 μM TCEP; for stabilization (SF100) at high TCEP: 1 mM TCEP; for stabilization of 14-3-3γ/ERRγ complex (SF100, fold): 24 h incubation; for stabilization factor SF100, Replicate 1 (Table S2) / stabilization factor SF100, Replicate 2 (Table S2) / stabilization factor SF100, Replicate 3 (Table S2) / stabilization factor SF100, Average (Table S2): KD DMSO control / apparent KD with 100 μM compound, 24 h; for stabilization factor SF100, Average (Table S2): average of three experiments
Experimental: The stabilization of the ERRγ/14-3-3γ complex by the molecular locks was assessed using a fluorescence anisotropy (FA) assay where 14-3-3γ was titrated into a fluorescently labeled ERRγ phosphopeptide in the absence or presence of a 100 μM molecular lock (Figure 2a,b); this compound concentration was selected based on a FA compound titration assay (Figure S1).
Experimental Section Biophysical Assays
14-3-3γ protein expression (FA, TSA, MS assays)
A pPROEX HTb expression vector encoding the human 14-3-3 protein gamma (14-3-3γ) with a N-terminal his6-tag was transformed by heat shock into NiCo21 (DE3) competent cells. Single colonies were cultured in 50 mL LB medium (100 µg/mL ampicillin). After overnight incubation at 37 °C, cultures were transferred to 2 L TB media (100 µg/mL ampicillin, 1 mM MgCl2) and incubated at 37 °C until an OD600 nm of 0.8 -1.2 was reached. Protein expression was then induced with 0.4 mM isopropyl-β-d-thiogalactoside (IPTG), and cultures were incubated overnight at 18 °C. Cells were harvested by centrifugation (8600 rpm, 20 minu tes, 4 °C) and resuspended in lysis buffer (50 mM Hepes, pH 8.0, 300 mM NaCl, 12.5 mM imidazole, 5 mM MgCl2, 2 mM βME) containing cOmplete™ EDTA-free Protease Inhibitor Cocktail tablets (1 tablet/100 ml lysate) and benzonase ( 5 µl/100 ml). After lysis using a C3 Emulsiflex-C3 homogenizer (Avestin), the cell lysate was cleared by centrifugation (20000 rpm, 30 minutes, 4 °C) and purified using Ni2+-affinity chromatography (Ni -NTA superflow cartridges, Qiagen). Typically two 5 mL columns (flow 5 mL/min) were use d for a 2 L culture in which the lysate was loaded on the column , washed with 10 CV wash buffer (50 mM Hepes, pH 8.0, 300 mM NaCl, 25 mM imidazole, 2 mM βME), and eluted in several fractions (2-4 CV) of elution buffer (50 mM Hepes, pH 8.0, 300 mM NaCl, 250 mM imidazole, 2 mM βME). Fractions containing the 14 -3-3 protein were combined and dialyzed into 25 mM HEPES pH 8.0, 100 mM NaCl, 10 mM MgCl2, 500 µM TCEP. Finally, the protein was concentrated to ∼60 mg/mL, analyzed Q-Tof LC/MS, and aliquots were flash-frozen for storage at −80 °C.
14-3-3σΔc C38N protein expression (Crystallography)
A pPROEX HTb expression vector encoding the human 14-3-3 protein sigma truncated after T231 (14-3-3σΔc), mutated C38N, and containing a N-terminal his6-tag was transformed by heat shock into NiCo21 (DE3) competent cells. Single colonies were cultured in 50 mL LB medium (100 µg/mL ampicillin). After overnight incubation at 37 °C, cultures were transferred to 2 L TB media (100 µg/mL ampicillin, 1 mM MgCl2) and incubated at 37 °C until an OD600 nm of 0.8-1.2 was reached. Protein expression was then induced with 0.4 mM isopropyl-β-d-thiogalactoside (IPTG), and cultures were incubated overnight at 18 °C. Cells were harvested by centrifugation (8600 rpm, 20 minutes, 4 °C) and resuspended in lysis buffer (50 mM Hepes, pH 8.0, 300 mM NaCl, 12.5 mM imidazole, 5 mM MgCl2, 2 mM βME) containing cOmplete™ EDTA-free Protease Inhibitor Cocktail tablets (1 tablet/ 100 ml lysate) and benzonase (5 µl/ 100 ml). After lysis using a C3 Emulsiflex-C3 homogenizer (Avestin), […]
chromatography (Ni-NTA superflow cartridges, Qiagen). Typically two 5 mL columns were used for a 2 L culture in which the lysate was loaded on the column , washed with 10 CV wash buffer (50 mM Hepes, pH 8.0, 300 mM NaCl, 25 mM imidazole, 2 mM βME), and eluted with several fractions (2 -4 CV) of elution buffer (50 mM Hepes, pH 8.0, 300 mM NaCl, 250 mM imidazole, 2 mM βME). Fractions containing the 14-3-3 protein were combined and dialyzed into 25 mM HEPES pH 8.0, 200 mM NaCl, 10 mM MgCl 2, 2 mM βME. In addition, 1 mg TEV was added for each 100 mg purified protein to remove the purification tag. The cleaved sample was then again loaded on a 10 mL Ni-NTA column to separate the cleaved product from the expression tag and residual uncleaved protein. The flowthrough was loaded on a Superdex 75 pg 16/60 size exc lusion column (GE Life Sciences) using […]

T1 sequence (P61981 whole entry, other chains not shown): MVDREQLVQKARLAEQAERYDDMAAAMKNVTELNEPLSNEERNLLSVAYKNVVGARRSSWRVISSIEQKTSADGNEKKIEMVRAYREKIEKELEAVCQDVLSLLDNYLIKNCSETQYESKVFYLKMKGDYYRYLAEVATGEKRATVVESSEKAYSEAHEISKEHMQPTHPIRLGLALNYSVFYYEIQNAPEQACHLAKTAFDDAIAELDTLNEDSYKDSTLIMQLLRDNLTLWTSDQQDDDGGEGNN

CN(C)CCSSCCN(C)C(=O)c1cccc(F)c1 [compound 1, reference compound]
SF100: 5
stabilization (SF100) at high TCEP: completely abolished
stabilization of 14-3-3γ/ERRγ complex (SF100, fold): five-fold
stabilization factor SF100, Replicate 1 (Table S2): 5.3
stabilization factor SF100, Replicate 2 (Table S2): 3.7
stabilization factor SF100, Replicate 3 (Table S2): 4.6
stabilization factor SF100, Average (Table S2): 4.6

CN(C)CCNC(=O)c1ccc(C=O)c(F)c1 [compound 3]
stabilization of 14-3-3γ/ERRγ complex (SF100, fold): 1
stabilization factor SF100, Replicate 1 (Table S2): 1.0
stabilization factor SF100, Replicate 2 (Table S2): 1.0
stabilization factor SF100, Replicate 3 (Table S2): 0.9
stabilization factor SF100, Average (Table S2): 1.0

CN(C)CCSSCCN(C)C(=O)c1ccc(C=O)c(F)c1 [compound 5]
stabilization (SF100) at high TCEP: completely abolished
stabilization factor SF100, Replicate 1 (Table S2): 27.0
stabilization factor SF100, Replicate 2 (Table S2): 17.8
stabilization factor SF100, Replicate 3 (Table S2): 16.5
stabilization factor SF100, Average (Table S2): 20.4

CN(C)CCSSCCN(C)C(=O)c1cc(Br)cc(C=O)c1 [compound 10]
SF100: 37
stabilization (SF100) at high TCEP: completely abolished
stabilization factor SF100, Replicate 1 (Table S2): 37.6
stabilization factor SF100, Replicate 2 (Table S2): 34.1
stabilization factor SF100, Replicate 3 (Table S2): 38.8
stabilization factor SF100, Average (Table S2): 36.9

Reference: publication PMC10064330, “Reversible Dual-Covalent Molecular Locking of the 14-3-3/ERRγ Protein–Protein Interaction as a Molecular Glue Drug Discovery Approach” (Journal of the American Chemical Society, 2023)
